This is an account of results in US20180184654A1, “Pesticidal Compositions Comprising a Triazole Compound” (BASF Agro B.V., priority 2015, published 2018).

The test system of one experiment is Septoria tritici. Briefly: Microtest: activity against leaf blotch on wheat caused by Septoria tritici (Septtr). Particulars: MTP, 405 nm, 7 days after inoculation. The experiment is classed as cell-based. How it is done: (§1) The active compounds were formulated separately as a stock solution having a concentration of 10000 ppm in dimethyl sulfoxide.
The stock solutions were mixed according to the ratio, pipetted onto a micro titer plate (MTP) and diluted with water to the stated concentrations. A spore suspension of Septoria tritici in an aqueous biomalt or yeast-bactopeptone-glycerine solution was then added. The plates were placed in a water vapor-saturated chamber at a temperature of 18° C. Using an absorption photometer, the MTPs were measured at 405 nm 7 days after the inoculation.
(§2) The measured parameters were compared to the growth of the active compound-free control variant (100%) and the fungus-free and active compound-free blank value to determine the relative growth in % of the pathogens in the respective active compounds.
(§3) These percentages were converted into efficacies.
(§4) The expected efficacies of active compound mixtures were determined using Colby's formula [R. S. Colby, “Calculating synergistic and antagonistic responses of herbicide combinations”, Weeds 15, 20-22 (1967)] and compared with the observed efficacies.

In a further experiment the test system is Leptosphaeria nodorum. In words: Microtest: activity against wheat leaf spots caused by Leptosphaeria nodorum (Leptno). Type of experiment: cell-based. Particulars: MTP, 405 nm, 7 days after inoculation. The method, then: as §1
The stock solutions were mixed according to the ratio, pipetted onto a micro titer plate (MTP) and diluted with water to the stated concentrations. A spore suspension of Leptosphaeria nodorum in an aqueous biomalt or yeast-bactopeptone-glycerine solution was then added. The plates were placed in a water vapor-saturated chamber at a temperature of 18° C. Using an absorption photometer, the MTPs were measured at 405 nm 7 days after the inoculation.
as §2, §3, §4

Consider `CC(O)(Cn1cncn1)c1ccc(Oc2ccc(Cl)cc2)cc1C(F)(F)F` (stereo not shown) [I-3, 2-[4-(4-chlorophenoxy)-2-(trifluoromethyl)phenyl]-1-(1,2,4-triazol-1-yl)propan-2-ol], for which the Observed efficacy in the experiment on Septoria tritici (single compound at 0.001 ppm) was determined as 6%; with Leptosphaeria nodorum (single compound at 0.016 ppm), 23%.

With `CCN(C(=O)c1cnn(C(C)C(C)C)c1C)c1ccnnc1` (stereo not shown) [II-2, 1-(1,2-dimethylpropyl)-N-ethyl-5-methyl-N-pyridazin-4-yl-pyrazole-4-carboxamide], the Observed efficacy in the experiment on Septoria tritici (single compound at 4 ppm) and in the experiment with Leptosphaeria nodorum (single compound at 63 ppm) was 7% each time.

As to `CCN(C(=O)c1cnn(C(C)C2(C#N)CC2)c1C)c1ccnnc1` (stereo not shown) [II-4, 1-[1-(1-cyanocyclopropyl)ethyl]-N-ethyl-5-methyl-N-pyridazin-4-yl-pyrazole-4-carboxamide], the Observed efficacy with Leptosphaeria nodorum (single compound at 63 ppm) came to 2%.

Regarding `CCN(C(=O)c1cnn(C(C)C(C)F)c1C)c1ccnnc1` (stereo not shown) [II-5, N-ethyl-1-(2-fluoro-1-methyl-propyl)-5-methyl-N-pyridazin-4-yl-pyrazole-4-carboxamide], the figures for the Observed efficacy in the experiment with Septoria tritici (single compound at 16 ppm) and in the experiment on Leptosphaeria nodorum (single compound at 63 ppm) were 9% and 12%, respectively.
